From patent publication US10851064B2, “ACSS2 inhibitors and methods of use thereof” (METABOMED LTD., priority 2017, dated 2020) come the findings set out here.

Values joined by “and” are separate entries in the source; they are usually repeats but may differ in a detail not shown here. Equal entries are not always repeated.
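Note: Cell-free human ACSS2 enzyme reaction with acetate, CoA and ATP, 90 min at 37 C, coupled to pyrophosphatase, phosphate release detected by Biomol Green absorbance at 620 nm.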

For the test, the target named is ACSS2 (Homo sapiens, UniProt Q9NR19). Kind of test: biochemical.
ACSS2, sequence (Q9NR19 whole entry): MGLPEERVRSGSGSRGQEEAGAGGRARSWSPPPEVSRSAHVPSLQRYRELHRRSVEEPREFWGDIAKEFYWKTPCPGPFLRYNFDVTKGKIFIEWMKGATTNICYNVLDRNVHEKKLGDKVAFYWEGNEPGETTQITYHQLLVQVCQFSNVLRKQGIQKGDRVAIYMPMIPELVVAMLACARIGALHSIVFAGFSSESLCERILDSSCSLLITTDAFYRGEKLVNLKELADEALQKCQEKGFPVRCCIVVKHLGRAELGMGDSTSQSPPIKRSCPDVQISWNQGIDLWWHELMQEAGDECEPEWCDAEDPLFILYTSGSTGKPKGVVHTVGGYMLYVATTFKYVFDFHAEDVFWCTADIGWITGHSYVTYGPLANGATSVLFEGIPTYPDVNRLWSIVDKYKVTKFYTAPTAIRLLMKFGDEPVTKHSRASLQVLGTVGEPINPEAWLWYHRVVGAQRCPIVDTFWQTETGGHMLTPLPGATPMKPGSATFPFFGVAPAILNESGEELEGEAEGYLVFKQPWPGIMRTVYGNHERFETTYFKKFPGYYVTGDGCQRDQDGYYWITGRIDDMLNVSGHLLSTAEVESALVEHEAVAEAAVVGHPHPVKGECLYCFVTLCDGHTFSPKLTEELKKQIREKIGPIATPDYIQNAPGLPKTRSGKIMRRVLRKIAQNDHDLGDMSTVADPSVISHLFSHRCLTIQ
Method: ACSS2 Cell-Free Activity Assay (Cell-Free IC50)
The assay is based on a coupling reaction with Pyrophosphatase: ACSS2 is converting ATP+CoA+Acetate=>AMP+pyrophosphate+Acetyl-CoA (Ac-CoA). Pyrophosphatase converts pyrophosphate, a product of the ACSS2 reaction, to phosphate which can be detected by measuring the absorbance at 620 nm after incubation with the Biomol green reagent (Enzo life Science, BML-AK111).
Cell-free IC50 Determination:
At the end of the reaction, Biomol Green was added for 30 minutes at RT and the activity was measured by reading the absorbance at 620 nm.
In general, IC50 refers to the point on the concentration scale where inhibition reaches its midpoint. Low readings indicate greater potency, high ones weaker potency. `CCC(F)(F)c1cccc(NC(=O)C2C(=O)N(c3ccc(OC(F)F)c(-c4ccccn4)c3)N=C2C)c1` (stereo not drawn) [compound 377] returned an IC50 of 0.01 to 6 nM.

Take `CC1=NN(c2cccc(C#CCNC(=O)COCCOCCOCCOCCOCC(=O)Nc3cccc4c3C(=O)N(C3CCC(=O)NC3=O)C4=O)c2)C(=O)C1C(=O)Nc1cccc(C(C)(F)F)c1` (stereo not drawn) [compound 378]: the IC50 was in the range of 0.01 to 6 nM.

Molecule `CC1=NN(c2cccc(C#CCNC(=O)COCCOCCOCCOCC(=O)Nc3ccc4c(c3)C(=O)N(C3CCC(=O)NC3=O)C4=O)c2)C(=O)C1C(=O)Nc1cccc(C(C)(F)F)c1` (stereo not drawn) [compound 379] showed an IC50 of 0.01 to 6 nM.

The molecule `CC1=NN(c2cccc(C#CCNC(=O)COCCOCCOCC(=O)Nc3cccc4c3C(=O)N(C3CCC(=O)NC3=O)C4=O)c2)C(=O)C1C(=O)Nc1cccc(C(C)(F)F)c1` (stereo not drawn) [compound 380] came in with an IC50 of 0.01 to 6 nM.

In the case of `CC1=NN(c2cccc(C#CCNC(=O)COCCOCC(=O)Nc3cccc4c3C(=O)N(C3CCC(=O)NC3=O)C4=O)c2)C(=O)C1C(=O)Nc1cccc(C(C)(F)F)c1` (stereo not drawn) [compound 381], the IC50 is 0.01 to 6 nM.

The molecule `CC1=NN(c2cccc(C#CCNC(=O)CCCC(=O)Nc3ccc4c(c3)C(=O)N(C3CCC(=O)NC3=O)C4=O)c2)C(=O)C1C(=O)Nc1cccc(C(C)(F)F)c1` (stereo not drawn) [compound 382] returned an IC50 of 0.01 to 6 nM.

Molecule `CCC(F)(F)c1cccc(NC(=O)C2C(=O)N(c3ccc(OC(F)F)cn3)N=C2C)c1` (stereo not drawn) [compound 383] showed an IC50 of 0.01 to 6 nM.

The molecule `CC1=NN(c2cc(Cc3ccc(Cl)cc3)cc(-c3cccnc3)c2)C(=O)C1C(=O)Nc1cccc(C(C)(F)F)c1` (stereo not drawn) [compound 384] registered an IC50 of 6 to 100 nM.

Turning to `COc1ccc(N2N=C(C)C(C(=O)Nc3cccc(C(C)(F)F)c3)C2=O)cc1-c1nnc(C)[nH]1` (stereo not drawn) [compound 385], the IC50 was 6 to 100 nM.

In turn, `CC1=NN(c2cc(Cc3ccccc3)cc(-c3ccccc3)c2)C(=O)C1C(=O)Nc1cccc(C(C)(F)F)c1` (stereo not drawn) [compound 387] registered a concentration for half-maximal inhibition (IC50) of 0.01 to 6 nM.

`CC1=NN(c2cc(Br)cc(Cc3ccc(Cl)cc3)c2)C(=O)C1C(=O)Nc1cccc(C(C)(F)F)c1` (stereo not drawn) [compound 388] gave a concentration for half-maximal inhibition (IC50) of 0.01 to 6 nM.

Molecule `CC1=NN(c2cc(Br)cc(-c3ccccc3)c2)C(=O)C1C(=O)Nc1cccc(C(C)(F)F)c1` (stereo not drawn) [compound 389] showed an IC50 of 0.01 to 6 nM.

`CC1=NN(c2cc(-c3ccccc3)cc(-c3cccnc3)c2)C(=O)C1C(=O)Nc1cccc(C(C)(F)F)c1` (stereo not drawn) [compound 390] showed an IC50 of 0.01 to 6 nM.

As for `CC1=NN(c2ccc(OC(F)F)cc2)C(=O)C1C(=O)N(C)c1cc(Cl)c(F)c(Cl)c1` (stereo not drawn) [compound 391], the half-maximal inhibitory concentration (IC50) is 100 to 1000 nM.

On to `COc1cc(Cl)cc(N(C)C(=O)C2C(=O)N(c3ccc(OC(F)F)cc3)N=C2C)c1` (stereo not drawn) [compound 392], for which the IC50 is 100 to 1000 nM.

`CC1=NN(c2ccc(OC(F)F)cc2)C(=O)C1C(=O)N(C)c1cc(C)cc(Cl)c1` (stereo not drawn) [compound 393] yielded an IC50 of 100 to 1000 nM.

`CC1=NN(c2ccc(OC(F)F)cc2)C(=O)C1C(=O)N(C)c1cc(F)cc(Cl)c1` (stereo not drawn) [compound 394] showed an IC50 of 100 to 1000 nM.

In the case of `CC1=NN(c2ccc(OC(F)F)cc2)C(=O)C1C(=O)N(C)c1cccc(Cl)c1` (stereo not drawn) [compound 395], the IC50 is 100 to 1000 nM.

`COc1ccc(N2N=C(C)C(C(=O)Nc3cccc(C(C)(F)F)c3)C2=O)cc1-c1ccc(-c2ccccc2)cc1` (stereo not drawn) [compound 396] came in with an IC50 of 6 to 100 nM.

`CC1=NN(c2ccc(OC(F)F)cc2)C(=O)C1C(=O)Nc1cc(C(C)(F)F)cc2c1COC2` (stereo not drawn) [compound 397]: the IC50 was 100 to 1000 nM and 6 to 100 nM.

The molecule `CCCc1cc(-c2cccnc2)cc(N2N=C(C)C(C(=O)Nc3cccc(C(C)(F)F)c3)C2=O)c1` (stereo not drawn) [compound 399] returned an IC50 of 0.01 to 6 nM.

`CCCc1cc(-c2ccccc2)cc(N2N=C(C)C(C(=O)Nc3cccc(C(C)(F)F)c3)C2=O)c1` (stereo not drawn) [compound 400] had an IC50 of 6 to 100 nM.

As for `CC1=NN(c2cc(-c3ccccc3)cc(-c3ccccc3)c2)C(=O)C1C(=O)Nc1cccc(C(C)(F)F)c1` (stereo not drawn) [compound 401], the IC50 was in the range of 6 to 100 nM.

Turning to `COc1c(-c2ccccc2)cc(N2N=C(C)C(C(=O)Nc3cccc(C(C)(F)F)c3)C2=O)cc1-c1ccccc1` (stereo not drawn) [compound 402], the IC50 was in the range of 6 to 100 nM.
